Literature values as cited in US20110118134A1, “Biomarkers for insulin sensitizer drug response” (IKFE GmbH, priority 2008, published 2011).

Tested on: MIF
Conditions: six week treatment, eight non-diabetic patients with obesity

## CN(C)C(=N)N=C(N)N [metformin]
  Plasma concentration of MIF and transcription of MIF mRNA in mononuclear cells: could be reduced
